The text below walks through data of patent US12520844B2 (Bayer Aktiengesellschaft, priority 2020, dated 2026).

The nature of the series: Measurement of Log P values by HPLC on reversed phase columns (EEC directive 79/831 Annex V.A8). Type of series: physicochemical. The protocol: Measurement of Log P values as provided herein was performed according to EEC directive 79/831 Annex V.A8 by HPLC (High Performance Liquid Chromatography) on reversed phase columns with the following methods: • ^[a] Log P value is determined by measurement of LC-UV, in an acidic range, with 0.1% formic acid in water and acetonitrile as eluent (linear gradient from 10% acetonitrile to 95% acetonitrile). • ^[b] Log P value is determined by measurement of LC-UV, in a neutral range, with 0.001 molar ammonium acetate solution in water and acetonitrile as eluent (linear gradient from 10% acetonitrile to 95% acetonitrile). • ^[c] Log P value is determined by measurement of LC-UV, in an acidic range, with 0.1% phosphoric acid and acetonitrile as eluent (linear gradient from 10% acetonitrile to 95% acetonitrile).
If more than one Log P value is available within the same method, all the values are given and separated by “+”.
Calibration was done with straight-chain alkan2-ones (with 3 to 16 carbon atoms) with known Log P values (measurement of Log P values using retention times with linear interpolation between successive alkanones). Lambda-max-values were determined using UV-spectra from 200 nm to 400 nm and the peak values of the chromatographic signals
In the case of `Cc1ncc(Oc2cccc(C3CC3)c2F)c(C(=O)NCCc2ccc(C)o2)n1` [Compound I-041], the LogP is 3.52^[a].

Take `Cc1ncc(Oc2cccc(C3CC3)c2F)c(C(=O)NCCc2cccc3[nH]ccc23)n1` [Compound I-042]: the LogP is 3.23^[a].

Consider `Cc1ncc(Oc2cccc(C3CC3)c2F)c(C(=O)NCC(F)c2ccc(C)c(C)c2)n1` (centres unmarked) [Compound I-043], for which the LogP is 4.22^[a].

Turning to `Cc1ccc(C(F)(F)CNC(=O)c2nc(C)ncc2Oc2cccc(OC(F)F)c2)c(C)c1` [Compound I-044], the LogP was 3.98^[a].

Consider `Cc1ncc(Oc2cccc(C3CC3)c2F)c(C(=O)NC2CCCc3ccc(Br)cc32)n1` (centres unmarked) [Compound I-045], for which the LogP was 4.55^[a].

As to `Cc1ncc(Oc2cccc(C3CC3)c2F)c(C(=O)NC2CCOc3ccccc32)n1` (centres unmarked) [Compound I-046], the LogP was 3.54^[a].

In the case of `CCOc1cccc(Oc2cnc(C)nc2C(=O)NCC(F)(F)c2ccc(C)cc2C)c1` [Compound I-047], the LogP was 4.13^[a].

With `Cc1ccc(C(F)=CNC(=O)c2nc(C3CC3)nnc2Oc2cccc(Br)c2F)c(C)c1` [Compound I-048], the LogP was 5.04^[a].

`Cc1ccc(C(F)(F)CNC(=O)c2nc(C)ncc2Oc2ccc(C(F)(F)F)cc2)c(C)c1` [Compound I-049]: the LogP is 4.39^[a].

For the molecule `Cc1ccc(C(F)(F)CNC(=O)c2nc(C3CC3)nnc2Oc2cccc(C)c2F)c(C)c1` [Compound I-050], the LogP is 4.47^[a].

With `Cc1ccc(/C(F)=C\NC(=O)c2nc(C3CC3)nnc2Oc2cccc(C)c2F)c(C)c1` [Compound I-051], the LogP is 5.16^[a].

With `Cc1cnn(CCNC(=O)c2nc(C)ncc2Oc2cccc(C3CC3)c2F)c1` [Compound I-052], the LogP was 2.59^[a].

For the molecule `Cc1ccc2c(c1)CCCC2NC(=O)c1nc(C)ncc1Oc1cccc(C2CC2)c1F` (centres unmarked) [Compound I-053], the LogP was 4.49^[a].

In the case of `Cc1ncc(Oc2cccc(C3CC3)c2F)c(C(=O)NCCOc2ccc(Cl)cc2)n1` [Compound I-054], the LogP is 3.93^[a].

As for `Cc1ccc2c(c1)C(NC(=O)c1nc(C)ncc1Oc1cccc(C3CC3)c1F)CC(C)(C)O2` (centres unmarked) [Compound I-055], the LogP was 4.42^[a].

For `Cc1ccc(C(F)(F)CNC(=O)c2nc(C)ncc2Oc2cccc(C3COC3)c2)c(C)c1` [Compound I-056], the LogP was 3.32^[a].

Take `Cc1ncc(Oc2cccc(C3CC3)c2F)c(C(=O)NC2CCS(=O)(=O)c3ccccc32)n1` (centres unmarked) [Compound I-057]: the LogP is 2.78^[a].

With `Cc1ccc(C(F)(F)CNC(=O)c2nc(C)ncc2Oc2ccccc2)c(C)c1` [Compound I-058], the LogP is 3.71^[a].

Consider `COCCOc1cccc(Oc2cnc(C)nc2C(=O)NCC(F)(F)c2ccc(C)cc2C)c1` [Compound I-059], for which the LogP is 3.66^[a].

For `COc1ccc2c(c1)C(NC(=O)c1nc(C)ncc1Oc1cccc(C3CC3)c1F)C(OC)CC2` (centres unmarked) [Compound I-060], the LogP is 3.72^[a].

For `COc1cccc(Oc2nnc(C3CC3)nc2C(=O)N/C=C(\F)c2ccc(C)cc2C)c1` [Compound I-061], the LogP is 4.44^[a].

As for `Cc1ccc(C(F)(F)CNC(=O)c2nc(C3CC3)nnc2Oc2cccc(Br)c2)c(C)c1` [Compound I-062], the LogP is 4.59^[a].

On to `Cc1ncc(Oc2cccc(C3CC3)c2F)c(C(=O)NCCc2cccs2)n1` [Compound I-064], for which the LogP is 3.43^[a].

For the molecule `CCC(=O)N(CCc1ccccc1)C(=O)c1nc(C)ncc1Oc1cccc(C2CC2)c1F` [Compound I-066], the LogP is 4.52^[a].

In the case of `COc1ccc(CCN(C(C)=O)C(=O)c2nc(C)ncc2Oc2cccc(C3CC3)c2F)cc1` [Compound I-067], the LogP is 4.01^[a].

On to `Cc1ccc(C(F)(F)CNC(=O)c2nc(C)ncc2Oc2cncc(C(F)(F)F)c2)c(C)c1` [Compound I-068], for which the LogP was 3.73^[a].

For `Cc1ncc(Oc2cccc(C3CC3)c2F)c(C(=O)NC2CCCc3cc(Br)ccc32)n1` (centres unmarked) [Compound I-069], the LogP was 4.71^[a].

For `Cc1ncc(Oc2cccc(C3CC3)c2F)c(C(=O)NCC(F)(F)c2cc(Cl)sc2Cl)n1` [Compound I-070], the LogP is 4.69^[a].

Consider `CCc1cccc(Oc2cnc(C)nc2C(=O)NCC(F)(F)c2ccc(C)cc2C)c1` [Compound I-071], for which the LogP is 4.42^[a].

Consider `COCc1cccc(Oc2cnc(C)nc2C(=O)NCC(F)(F)c2ccc(C)cc2C)c1` [Compound I-072], for which the LogP is 3.67^[a].

As to `C#Cc1cccc(Oc2nnc(C3CC3)nc2C(=O)NCC(F)(F)c2ccc(C)cc2C)c1` [Compound I-073], the LogP is 4.26^[a].

As for `Cc1cc(C)n(CCNC(=O)c2nc(C)ncc2Oc2cccc(C3CC3)c2F)n1` [Compound I-075], the LogP is 2.60^[a].

Consider `Cc1ncc(Oc2cccc(C3CC3)c2F)c(C(=O)NC(C)c2ccc(Cl)s2)n1` (centres unmarked) [Compound I-076], for which the LogP is 4.09^[a].

For `Cc1ncc(Oc2cccc(C3CC3)c2F)c(C(=O)NCCc2ccc3c(c2)OCCO3)n1` [Compound I-077], the LogP was 3.30^[a].

With `Cc1ncc(Oc2cccc(C3CC3)c2F)c(C(=O)NC2CCCc3sc(C4CC4)nc32)n1` (centres unmarked) [Compound I-078], the LogP is 3.81^[a].

Regarding `Cc1ccc(C(F)(F)CNC(=O)c2nc(C)ncc2Oc2cccc(C#N)c2)c(C)c1` [Compound I-079], the LogP is 3.53^[a].

As for `Cc1ncc(Oc2cccc(C3CC3)c2F)c(C(=O)NC2CC(C)(C)Oc3cc(Cl)c(F)cc32)n1` (centres unmarked) [Compound I-080], the LogP was 4.87^[a].

Take `Cc1ncc(Oc2cccc(C3CC3)c2F)c(C(=O)NCCOc2ccc(C(F)(F)F)cc2Cl)n1` [Compound I-081]: the LogP is 4.52^[a].

For the molecule `COc1cccc(Oc2nnc(C3CC3)nc2C(=O)NCC(F)(F)c2ccc(C)cc2C)c1` [Compound I-082], the LogP is 4.19^[a].

As for `Cc1ccc(C(F)(F)CNC(=O)c2nc(C)ncc2Oc2cccc(C)c2F)c(C)c1` [Compound I-083], the LogP is 4.07^[a].

On to `COc1cccc(Oc2cnc(C)nc2C(=O)NCC(F)(F)c2ccc(C)cc2C)c1F` [Compound I-084], for which the LogP is 3.71^[a].

Consider `Cc1ccc(C(F)(F)CNC(=O)c2nc(C)ncc2Oc2cccc(Br)c2)c(C)c1` [Compound I-085], for which the LogP was 4.28^[a].

Consider `Cc1ncc(Oc2cccc(C3CC3)c2F)c(C(=O)NCCn2cc(Cl)cn2)n1` [Compound I-086], for which the LogP was 2.88^[a].

Turning to `Cc1ncc(Oc2cccc(C3CC3)c2F)c(C(=O)NCCc2ccc3c(c2)CCO3)n1` [Compound I-087], the LogP is 3.43^[a].

On to `Cc1ncc(Oc2cccc(C3CC3)c2F)c(C(=O)N(Cc2ccccc2)OCC(C)C)n1` [Compound I-088], for which the LogP is 4.72^[a].

For `COc1cc(C(F)CNC(=O)c2nc(C)ncc2Oc2cccc(C3CC3)c2F)ccc1Cl` (centres unmarked) [Compound I-089], the LogP is 3.93^[a].

As for `Cc1ccc(C(F)(F)CNC(=O)c2nc(C)ncc2Oc2cccc([N+](=O)[O-])c2)c(C)c1` [Compound I-090], the LogP is 3.75^[a].

As to `Cc1ccc(C(F)(F)CNC(=O)c2nc(C)ncc2Oc2cccc3c2CCC3)c(C)c1` [Compound I-092], the LogP is 4.49^[a].

Consider `Cc1ccc(C(F)(F)CNC(=O)c2nc(C)ncc2Oc2ccc(C)c(Cl)c2)c(C)c1` [Compound I-093], for which the LogP is 4.54^[a].

On to `Cc1ccc(C(F)(F)CNC(=O)c2nc(C)ncc2Oc2cccc(OC(F)(F)F)c2)c(C)c1` [Compound I-094], for which the LogP is 4.50^[a].

`Nc1ncc(Oc2cccc(C(F)(F)F)c2)c(C(=O)NCCc2ccc(Br)cc2)n1` [Compound I-095]: the LogP is 4.05^[a].

As to `CC(NC(=O)c1nc(F)ncc1Oc1cccc(C(F)(F)F)c1)c1cccc(C(F)(F)F)c1` (centres unmarked) [Compound I-096], the LogP was 2.88^[a].

For `Cc1ncc(Oc2cccc(C3CC3)c2F)c(C(=O)NOCc2ccc(C#N)cc2)n1` [Compound I-097], the LogP is 2.87^[a].

In the case of `Cc1ncc(Oc2cccc(C3CC3)c2F)c(C(=O)NCCc2ccc(OC(C)C)nc2)n1` [Compound I-099], the LogP was 3.44^[a].

On to `Cc1ncc(Oc2cccc(C3CC3)c2F)c(C(=O)NOCc2ccc(OC(F)(F)F)cc2)n1` [Compound I-100], for which the LogP was 3.89^[a].

Consider `C#Cc1cccc(Oc2cnc(C)nc2C(=O)NCC(F)(F)c2ccc(C)cc2C)c1` [Compound I-102], for which the LogP is 4.01^[a].

For `Cc1ccc(C(F)(F)CNC(=O)c2nc(C)ncc2Oc2cccc(C3CC3)c2F)c(C)c1` [Compound I-103], the LogP is 4.44^[a].

On to `Cc1ccc(C(F)(F)CNC(=O)c2nc(C)ncc2Oc2ccc3c(c2)CCC3)c(C)c1` [Compound I-104], for which the LogP was 4.56^[a].

Take `Cc1ccc(/C(F)=C/NC(=O)c2nc(C3CC3)nnc2Oc2cccc(Cl)c2F)c(C)c1` [Compound I-105]: the LogP was 5.36^[a].

On to `Cc1ccc(C(F)(F)CNC(=O)c2nc(C)ncc2Oc2ccc3ccccc3c2)c(C)c1` [Compound I-106], for which the LogP was 4.35^[a].

On to `Cc1ccc(/C(F)=C/NC(=O)c2nc(C3CC3)nnc2Oc2cccc(C)c2F)c(C)c1` [Compound I-107], for which the LogP is 4.85^[a].

Take `Cc1ccc(C(F)(F)CNC(=O)c2nc(C)ncc2Oc2ccc(Cl)c(C(F)(F)F)c2)c(C)c1` [Compound I-108]: the LogP is 4.72^[a].
